From paper PMC9675574 (JCI Insight, 2022)
Like-named read-outs stand apart in the source and are kept apart here.

Tests used:
[1] = biological target: mouse trypsin isoform T7 (cationic trypsin) (Mus musculus, UniProt Q9CPN9); assay type: biochemical; settings: GPR-pNA, 24°C
Procedure: (§1) Recombinant human and mouse trypsinogens were expressed in Escherichia coli BL21(DE3) (Invitrogen), refolded in vitro, and purified by ecotin affinity chromatography (Pharmacia FPLC), according to published protocols ([60], [63], [64]). Sulfated human trypsinogens were purified from archived samples of human pancreatic juice, as described previously, with minor modifications ([65], [66]). Briefly, 50 mg freeze-dried pancreatic juice was dissolved in 2 mL 10 mM HCl, clarified by centrifugation (21,000g, 5 minutes, 4°C), and loaded onto a MonoQ 5/50 GL column equilibrated with 20 mM Tris-HCl (pH 8.0). Proteins were eluted with a 0–0.5 M NaCl gradient at 1 mL/min flow rate for 30 minutes. The fractions containing the cationic and anionic trypsinogens were further purified with ecotin affinity chromatography. The concentration of trypsinogen preparations was estimated from their UV absorbance at 280 nm using the extinction coefficients reported previously for mouse trypsinogens ([64]) and 37,525, 38,890, and 41,535/M/cm for human cationic trypsinogen (PRSS1), anionic trypsinogen (PRSS2), and mesotrypsinogen (PRSS3), respectively. To activate trypsinogen to trypsin, approximately 1 μM solution was incubated at 37°C with 28.2 ng/mL human enterokinase (final concentration) in 0.1 M Tris-HCl (pH 8.0), 10 mM CaCl2, and 0.05% Tween 20 for 1 hour. The activation reaction was followed by measuring trypsin activity: 2 μL trypsin was diluted in 48 μL assay buffer [0.1 M Tris-HCl (pH 8.0), 1 mM CaCl2, and 0.05% Tween 20], and 150 μL of 200 μM GPR-pNA trypsin substrate (in assay buffer) was added. Substrate cleavage resulting in the release of the yellow p-nitroaniline was monitored for 1 minute in a Spectramax Plus 384 microplate reader at 405 nm.
(§2) Michaelis-Menten kinetic parameters of trypsin isoforms were determined with the chromogenic substrate GPR-pNA at 24°C. The trypsin concentration was 1 nM and the substrate concentration was varied typically between 1.56 and 200 μM in a final volume of 200 μL assay buffer. The substrate concentration range was 3.1–400 μM for mouse trypsin isoform T7 and 0.4–50 μM for mouse trypsin isoform T20. Km and kcat values were calculated from hyperbolic fits to plots of reaction velocity versus substrate concentration.
(§3) Michaelis-Menten kinetic parameters were then measured after adding 100 μL trypsin substrate, as described above. […] To determine the Ki, the Km values were plotted as a function of the inhibitor concentration, and the Ki was calculated by dividing the y axis intercept with the slope of the linear fit. This value corresponds to the negative of the x axis intercept. Alternatively, the substrate saturation curves obtained in the absence and presence of the increasing inhibitor concentrations were globally fitted to the competitive inhibition equation y = vmax × (x/[KmObs+ x]), where y is the reaction velocity, vmax is the maximal velocity, x is the substrate concentration, and KmObs = Km × (1 + [I]/Ki), where [I] is the inhibitor concentration. Experiments were performed 3 times and each experiment was analyzed separately. […] Kinetic analysis was performed with the Prism 8 program (GraphPad).

[2] = biological target: mouse trypsin isoform T8 (anionic trypsin) (Mus musculus, UniProt Q9R0T7); assay: biochemical; assay type: biochemical; settings: for kcat / Km: GPR-pNA, 24°C
Procedure: as §1, §2, §3

bovine trypsin = biological target: T1, bovine trypsin (Bos taurus, UniProt P00760); assay: Competitive inhibition kinetics of trypsin, GPR-pNA substrate; assay type: biochemical; settings: 24°C
T1 construct: purchased Worthington Biochemical Corporation LS003707
T1 sequence (P00760 24-246): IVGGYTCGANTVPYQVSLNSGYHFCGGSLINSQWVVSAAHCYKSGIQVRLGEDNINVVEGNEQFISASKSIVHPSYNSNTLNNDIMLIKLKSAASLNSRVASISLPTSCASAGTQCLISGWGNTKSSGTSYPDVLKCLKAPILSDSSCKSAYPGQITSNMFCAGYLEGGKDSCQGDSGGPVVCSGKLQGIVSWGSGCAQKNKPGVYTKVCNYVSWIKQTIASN
Procedure: Bovine trypsin (catalog number LS003707) was purchased from Worthington Biochemical Corporation and was active-site titrated with p-nitrophenyl p’-guanidino-benzoate (catalog number N-8010, MilliporeSigma) ([59]). Ecotin was produced and purified as reported previously ([60]). The concentration of ecotin was determined by titration against active-site titrated bovine trypsin. Recombinant human pro-enterokinase (catalog number 1585-SE-010) was purchased from R&D Systems and was activated with human cationic trypsin. The trypsin substrate GPR-pNA (catalog number 4000768.0100) was purchased from Bachem Americas. […] Michaelis-Menten kinetic parameters of trypsin isoforms were determined with the chromogenic substrate GPR-pNA at 24°C. […] Km and kcat values were calculated from hyperbolic fits to plots of reaction velocity versus substrate concentration. […] To determine the Ki, the Km values were plotted as a function of the inhibitor concentration, and the Ki was calculated by dividing the y axis intercept with the slope of the linear fit. This value corresponds to the negative of the x axis intercept. […] Experiments were performed 3 times and each experiment was analyzed separately. […] Kinetic analysis was performed with the Prism 8 program (GraphPad).

[3] = biological target: human and mouse trypsin isoforms; assay: Ki ranges over the panel of trypsin isoforms; assay type: biochemical
Procedure: Michaelis-Menten kinetic parameters of trypsin isoforms were determined with the chromogenic substrate GPR-pNA at 24°C. […] Km and kcat values were calculated from hyperbolic fits to plots of reaction velocity versus substrate concentration. […] To determine the Ki, the Km values were plotted as a function of the inhibitor concentration, and the Ki was calculated by dividing the y axis intercept with the slope of the linear fit. This value corresponds to the negative of the x axis intercept. […] Experiments were performed 3 times and each experiment was analyzed separately. […] Kinetic analysis was performed with the Prism 8 program (GraphPad).

[4] = human volunteers, cited from earlier work
[5] = range over trypsin isoforms tested, read-out: Ki range, individual fit analysis

mouse trypsin isoform T7 (cationic trypsin), sequence (Q9CPN9 entry or part of it): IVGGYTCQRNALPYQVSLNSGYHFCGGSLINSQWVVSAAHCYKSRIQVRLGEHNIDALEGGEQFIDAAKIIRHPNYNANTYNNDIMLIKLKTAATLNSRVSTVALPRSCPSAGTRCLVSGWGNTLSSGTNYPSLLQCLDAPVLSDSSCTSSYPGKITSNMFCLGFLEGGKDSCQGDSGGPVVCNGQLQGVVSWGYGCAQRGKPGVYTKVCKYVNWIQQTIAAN
mouse trypsin isoform T8 (anionic trypsin), sequence (Q9R0T7 24-246): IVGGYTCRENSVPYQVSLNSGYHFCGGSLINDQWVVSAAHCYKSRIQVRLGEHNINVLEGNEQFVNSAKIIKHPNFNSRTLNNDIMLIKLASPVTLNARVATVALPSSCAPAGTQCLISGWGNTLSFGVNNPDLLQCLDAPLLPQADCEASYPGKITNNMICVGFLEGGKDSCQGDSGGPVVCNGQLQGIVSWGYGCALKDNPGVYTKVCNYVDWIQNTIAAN

In the case of N=C(N)c1ccccc1 [benzamidine], the kcat ([1]; 12.5 μM benzamidine) is reported as 125.4 ± 2.7 per second, the kcat ([1]; 25 μM benzamidine) is reported as 125.5 ± 3.5 per second and the kcat ([1]; 37.5 μM benzamidine) is reported as 135 ± 3.9 per second. For the same molecule, the kcat ([1]; 50 μM benzamidine) was 127.9 ± 7.5 per second, the kcat ([2]; 12.5 μM benzamidine) was 103.9 ± 7.9 per second and the kcat ([2]; 25 μM benzamidine) was 105.6 ± 4.9 per second. For the same molecule, the kcat ([2]; 37.5 μM benzamidine) was 100.2 ± 0.8 per second, the kcat ([2]; 50 μM benzamidine) was 105.5 ± 7 per second and the Ki ([2]; mean ± SD, n = 3) was 6.7 ± 1.3 µM. For the same molecule, the kcat (bovine trypsin; 25 μM benzamidine) was 109 ± 9.5 per second, the kcat (bovine trypsin; 50 μM benzamidine) was 115.8 ± .9 per second and the Ki [3, 5] was 3300 to 20600 nM.
For [H]/N=C(/N)c1ccc(NCc2nc3cc(C(=O)N(CCC(=O)O)c4ccccn4)ccc3n2C)cc1 [dabigatran], the kcat ([1]; 100 nM dabigatran) was 47.5 ± 2 per second, the kcat ([1]; 150 nM dabigatran) was 50.1 ± 1.5 per second and the kcat ([1]; 200 nM dabigatran) was 49.3 ± 1.7 per second. For the same molecule, the Ki [2] was 0.0316 ± 0.0026 µM, the Km ([2]; 50 nM dabigatran) was 20.6 ± 1.5 µM and the kcat ([2]; 50 nM dabigatran) was 90.4 ± 1 per second. The Km ([2]; 100 nM dabigatran) was 34.2 ± 4.1 µM, the kcat ([2]; 100 nM dabigatran) was 92.3 ± 1.6 per second and the Km ([2]; 150 nM dabigatran) was 46.3 ± 3 µM. It also gave a kcat ([2]; 150 nM dabigatran) of 88.9 ± 1.3 per second, a Km ([2]; 200 nM dabigatran) of 60.8 ± 4 µM and a kcat ([2]; 200 nM dabigatran) of 85.1 ± 7.2 per second. The Km (bovine trypsin; 50 nM dabigatran) was 49.5 ± 3.3 µM, the kcat (bovine trypsin; 50 nM dabigatran) was 127.7 ± 0.8 per second and the Km (bovine trypsin; 100 nM dabigatran) was 71.6 ± 3.5 µM. It also gave a kcat (bovine trypsin; 100 nM dabigatran) of 126.6 ± 3.5 per second, a Km (bovine trypsin; 150 nM dabigatran) of 91.9 ± 4.9 µM and a kcat (bovine trypsin; 150 nM dabigatran) of 123.8 ± 2.9 per second. The Km (bovine trypsin; 200 nM dabigatran) was 126 ± 7 µM, the kcat (bovine trypsin; 200 nM dabigatran) was 130.1 ± 1.4 per second and the Ki ([3]; all human and mouse trypsin isoforms, read-out: Ki range) was 10 to 79 nM. The Ki ([3]; range over trypsin isoforms tested, read-out: Ki range, global fit analysis) was 10.3 to 78.9 nM, the Ki [3, 5] was 10 to 65 nM and the “steady-state plasma levels of dabigatran” value ([4]; 100 mg dabigatran etexilate 3 times daily) was “around 50 ng/mL”. The “steady-state plasma levels of dabigatran” value ([4]; 200 mg dabigatran etexilate 3 times daily) was about 100 ng/mL.
